The values that follow are results of earlier work, collected in patent US10307432B2, “Stabilized liquid fosaprepitant formulations” (Cipla Limited, priority 2015, dated 2019).

The structures appear in SMILES notation.

In data set [1] the test system is serotonin, dopamine or corticosteroid receptors.
For data set [2] the following is noted: after an IV infusion.

`C[C@@H](O[C@H]1OCCN(Cc2n[nH]c(=O)[nH]2)[C@H]1c1ccc(F)cc1)c1cc(C(F)(F)F)cc(C(F)(F)F)c1` [Aprepitant]: the “affinity for serotonin, dopamine or corticosteroid receptors” value in data set [1] was “little or no affinity”. In the case of `C[C@@H](O[C@H]1OCCN(Cc2nc(O)n(P(=O)(O)O)n2)[C@H]1c1ccc(F)cc1)c1cc(C(F)(F)F)cc(C(F)(F)F)c1` [Fosaprepitant], the “time of conversion to aprepitant” value in data set [2] is given as “less than 30 minutes”.
